Results as given in ChEMBL document CHEMBL5465560, “Selectivity Literature for EUbOPEN Chemogenomic Library” (2024).
Each block holds one molecule with its values, some of them ahead of it.

Legend:
[1] = target: Serine/threonine-protein kinase PAK 1 (Homo sapiens) (UniProt Q13153); test: Selectivity interaction (Ambit KINOMEscan and KiNATiv profiling in Jurkat cells) EUB0000090b PAK1; format: cell-based; details: at 1 µM
[2] = target: Calcium/calmodulin-dependent protein kinase type 1G (Homo sapiens) (UniProt Q96NX5); test: Selectivity interaction (KinomeScan (DiscoverX)) EUB0000618a CAMK1G; details: at 10 µM
[3] = target: 5'-AMP-activated protein kinase catalytic subunit alpha-1 (Homo sapiens, UniProt Q13131); test: Selectivity interaction (ActivX KiNativ screen (ex vivo kinase selectivity in human PBMCs)) EUB0001619a PRKAA1; format: cell-based; details: PBMC, at 1 µM
[4] = target: Casein kinase II subunit alpha (Homo sapiens, UniProt P68400); test: Selectivity interaction (KinomeScan (DiscoverX)) EUB0001619a CSNK2A1; details: at 1 µM
[5] = target: Interferon-induced, double-stranded RNA-activated protein kinase (Homo sapiens) (UniProt P19525); test: Selectivity interaction (Kinase panel (KiNativ target engagement assay in Jurkat cells)) EUB0001635a EIF2AK2; format: cell-based; details: Selectivity number of off-targets 0.0, Selectivity number of targets 233.0, Source Knowledge https://www.sciencedirect.com/science/article/pii/S2451945619300674?via%3Dihub, at 1 µM
[6] = target: T1, Ankyrin repeat and protein kinase domain-containing protein 1 (Homo sapiens) (UniProt Q8NFD2); details: at 10 µM
T1 sequence (whole entry): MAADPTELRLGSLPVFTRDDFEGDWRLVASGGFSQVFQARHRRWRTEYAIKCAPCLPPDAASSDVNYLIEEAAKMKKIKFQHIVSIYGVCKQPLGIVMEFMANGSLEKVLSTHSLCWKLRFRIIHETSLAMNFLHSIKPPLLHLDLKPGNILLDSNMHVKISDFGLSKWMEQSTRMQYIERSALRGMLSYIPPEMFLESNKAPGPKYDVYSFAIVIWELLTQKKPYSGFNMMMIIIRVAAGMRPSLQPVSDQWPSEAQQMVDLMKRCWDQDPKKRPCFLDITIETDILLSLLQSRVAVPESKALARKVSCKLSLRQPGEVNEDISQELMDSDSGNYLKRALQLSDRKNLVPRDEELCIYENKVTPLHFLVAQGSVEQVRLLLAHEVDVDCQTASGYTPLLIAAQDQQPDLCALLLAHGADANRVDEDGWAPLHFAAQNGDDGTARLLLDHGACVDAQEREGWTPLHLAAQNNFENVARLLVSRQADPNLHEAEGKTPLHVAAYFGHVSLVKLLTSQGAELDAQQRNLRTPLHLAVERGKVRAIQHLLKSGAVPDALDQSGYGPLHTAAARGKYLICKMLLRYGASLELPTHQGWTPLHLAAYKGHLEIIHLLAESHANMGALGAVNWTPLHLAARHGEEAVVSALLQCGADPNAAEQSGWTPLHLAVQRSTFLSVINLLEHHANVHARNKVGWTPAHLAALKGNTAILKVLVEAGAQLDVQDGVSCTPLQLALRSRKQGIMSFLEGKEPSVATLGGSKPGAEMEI

[7] = target: Cyclin-dependent kinase 20 (Homo sapiens) (UniProt Q8IZL9); test: Selectivity interaction (ActivX KiNativ screen (kinase selectivity in THP-1 cell lysates)) EUB0000639a CDK20; format: subcellular; details: lysate
[8] = target: Tyrosine-protein kinase ABL1 (Homo sapiens, UniProt P00519); test: Selectivity interaction (Kinase panel (Invitrogen)) EUB0000639a ABL1; details: at 200 nM
[9] = target: Protein kinase C theta type (Homo sapiens, UniProt Q04759); test: Selectivity interaction (KinomeScan (DiscoverX)) EUB0001049a PRKCQ; details: at 1 µM
[10] = target: Mitogen-activated protein kinase kinase kinase 14 (Homo sapiens) (UniProt Q99558); test: Selectivity interaction (KinomeScan (DiscoverX)) EUB0000695a MAP3K14; details: at 100 nM
[11] = target: T2, Protein kinase C iota type (Homo sapiens) (UniProt P41743); test: Selectivity interaction (KinomeScan (DiscoverX)) EUB0000695a PRKCI; details: at 100 nM
T2 sequence (whole entry): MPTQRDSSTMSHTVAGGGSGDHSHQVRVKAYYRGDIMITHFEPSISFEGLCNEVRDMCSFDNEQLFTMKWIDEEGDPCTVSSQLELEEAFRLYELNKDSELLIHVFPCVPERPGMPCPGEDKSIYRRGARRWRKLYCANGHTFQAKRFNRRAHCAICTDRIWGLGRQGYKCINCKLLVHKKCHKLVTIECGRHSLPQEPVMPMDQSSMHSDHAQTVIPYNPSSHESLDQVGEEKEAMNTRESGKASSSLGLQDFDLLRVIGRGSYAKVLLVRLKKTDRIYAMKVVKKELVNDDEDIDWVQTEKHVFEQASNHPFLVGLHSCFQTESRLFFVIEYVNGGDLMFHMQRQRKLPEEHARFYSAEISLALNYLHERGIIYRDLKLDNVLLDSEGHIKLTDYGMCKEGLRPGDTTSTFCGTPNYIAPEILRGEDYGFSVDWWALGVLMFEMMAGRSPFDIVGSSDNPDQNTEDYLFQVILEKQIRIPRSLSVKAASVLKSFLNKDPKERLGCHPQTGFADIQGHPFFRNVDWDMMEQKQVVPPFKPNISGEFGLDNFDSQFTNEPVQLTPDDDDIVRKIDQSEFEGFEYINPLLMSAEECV

Sequence of Cyclin-dependent kinase 20 (Homo sapiens) (Q8IZL9 whole entry): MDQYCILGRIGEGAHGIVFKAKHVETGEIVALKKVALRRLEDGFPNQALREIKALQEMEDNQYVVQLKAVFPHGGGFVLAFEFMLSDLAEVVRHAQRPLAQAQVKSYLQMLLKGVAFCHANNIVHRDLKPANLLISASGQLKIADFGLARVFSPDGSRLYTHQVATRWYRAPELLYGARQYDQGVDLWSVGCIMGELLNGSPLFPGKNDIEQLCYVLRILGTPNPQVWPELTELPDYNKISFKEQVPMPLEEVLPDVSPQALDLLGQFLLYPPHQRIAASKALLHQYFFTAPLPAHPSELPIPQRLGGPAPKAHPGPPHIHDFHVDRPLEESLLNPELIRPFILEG
Sequence of Interferon-induced, double-stranded RNA-activated protein kinase (Homo sapiens) (P19525 whole entry, the tested form may be a part): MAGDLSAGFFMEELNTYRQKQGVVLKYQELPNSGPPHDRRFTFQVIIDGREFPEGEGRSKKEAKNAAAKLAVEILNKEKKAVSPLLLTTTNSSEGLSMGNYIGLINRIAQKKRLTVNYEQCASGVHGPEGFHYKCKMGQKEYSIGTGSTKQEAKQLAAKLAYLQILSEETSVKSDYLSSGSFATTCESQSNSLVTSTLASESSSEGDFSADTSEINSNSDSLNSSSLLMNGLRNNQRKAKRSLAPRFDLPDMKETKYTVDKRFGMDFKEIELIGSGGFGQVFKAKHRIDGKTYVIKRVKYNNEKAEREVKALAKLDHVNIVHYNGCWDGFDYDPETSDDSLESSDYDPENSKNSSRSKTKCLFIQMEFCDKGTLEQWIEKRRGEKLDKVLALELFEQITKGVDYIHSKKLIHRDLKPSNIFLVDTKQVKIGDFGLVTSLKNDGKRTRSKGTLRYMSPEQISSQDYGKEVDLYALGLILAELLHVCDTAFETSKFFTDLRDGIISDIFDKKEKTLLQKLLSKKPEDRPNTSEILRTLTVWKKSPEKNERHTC
Sequence of Serine/threonine-protein kinase PAK 1 (Homo sapiens) (Q13153 whole entry): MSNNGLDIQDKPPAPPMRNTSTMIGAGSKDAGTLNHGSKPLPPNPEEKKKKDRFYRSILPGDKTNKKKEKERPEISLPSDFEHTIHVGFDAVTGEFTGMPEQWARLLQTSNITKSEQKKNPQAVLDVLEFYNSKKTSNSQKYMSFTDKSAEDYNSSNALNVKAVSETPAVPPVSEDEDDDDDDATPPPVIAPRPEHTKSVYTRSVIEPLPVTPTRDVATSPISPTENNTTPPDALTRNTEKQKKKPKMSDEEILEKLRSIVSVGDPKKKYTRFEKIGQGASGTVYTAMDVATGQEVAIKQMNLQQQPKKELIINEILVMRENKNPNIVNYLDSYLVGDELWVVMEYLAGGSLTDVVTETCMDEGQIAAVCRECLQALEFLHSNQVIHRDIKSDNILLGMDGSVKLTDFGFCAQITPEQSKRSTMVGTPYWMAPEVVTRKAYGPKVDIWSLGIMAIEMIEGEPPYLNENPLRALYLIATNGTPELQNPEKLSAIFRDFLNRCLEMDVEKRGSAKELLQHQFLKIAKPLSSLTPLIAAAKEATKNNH
Sequence of Protein kinase C theta type (Q04759 whole entry, looked up): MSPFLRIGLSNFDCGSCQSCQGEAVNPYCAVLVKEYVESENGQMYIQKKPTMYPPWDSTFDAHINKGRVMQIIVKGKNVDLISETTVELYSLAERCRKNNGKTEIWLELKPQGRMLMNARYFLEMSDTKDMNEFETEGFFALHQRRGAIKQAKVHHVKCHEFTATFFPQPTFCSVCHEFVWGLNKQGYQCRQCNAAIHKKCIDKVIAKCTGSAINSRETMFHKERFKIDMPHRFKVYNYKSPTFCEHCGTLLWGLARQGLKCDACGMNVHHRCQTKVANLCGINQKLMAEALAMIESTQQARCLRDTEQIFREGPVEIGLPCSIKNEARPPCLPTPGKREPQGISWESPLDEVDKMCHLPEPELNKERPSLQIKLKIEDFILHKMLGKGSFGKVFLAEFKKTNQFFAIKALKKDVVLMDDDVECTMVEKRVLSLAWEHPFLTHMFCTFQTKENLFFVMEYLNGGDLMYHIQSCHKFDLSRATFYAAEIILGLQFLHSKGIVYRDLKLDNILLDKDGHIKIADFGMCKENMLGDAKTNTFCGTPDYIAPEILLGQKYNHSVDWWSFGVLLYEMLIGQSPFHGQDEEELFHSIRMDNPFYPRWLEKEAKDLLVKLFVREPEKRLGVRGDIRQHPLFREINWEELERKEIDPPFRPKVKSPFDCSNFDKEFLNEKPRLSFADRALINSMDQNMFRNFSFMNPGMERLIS
Sequence of Casein kinase II subunit alpha (P68400 whole entry, looked up): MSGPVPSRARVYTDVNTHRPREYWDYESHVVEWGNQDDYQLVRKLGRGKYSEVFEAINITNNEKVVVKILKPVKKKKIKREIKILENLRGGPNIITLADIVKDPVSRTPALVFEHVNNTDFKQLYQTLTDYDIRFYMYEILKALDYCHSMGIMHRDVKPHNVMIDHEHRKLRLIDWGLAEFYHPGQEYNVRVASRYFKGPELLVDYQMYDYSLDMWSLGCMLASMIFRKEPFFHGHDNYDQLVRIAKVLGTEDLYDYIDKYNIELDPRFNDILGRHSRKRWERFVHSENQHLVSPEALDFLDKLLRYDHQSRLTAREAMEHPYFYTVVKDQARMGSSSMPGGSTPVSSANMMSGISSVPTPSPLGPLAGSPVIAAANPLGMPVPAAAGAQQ
Sequence of Calcium/calmodulin-dependent protein kinase type 1G (Homo sapiens) (Q96NX5 whole entry): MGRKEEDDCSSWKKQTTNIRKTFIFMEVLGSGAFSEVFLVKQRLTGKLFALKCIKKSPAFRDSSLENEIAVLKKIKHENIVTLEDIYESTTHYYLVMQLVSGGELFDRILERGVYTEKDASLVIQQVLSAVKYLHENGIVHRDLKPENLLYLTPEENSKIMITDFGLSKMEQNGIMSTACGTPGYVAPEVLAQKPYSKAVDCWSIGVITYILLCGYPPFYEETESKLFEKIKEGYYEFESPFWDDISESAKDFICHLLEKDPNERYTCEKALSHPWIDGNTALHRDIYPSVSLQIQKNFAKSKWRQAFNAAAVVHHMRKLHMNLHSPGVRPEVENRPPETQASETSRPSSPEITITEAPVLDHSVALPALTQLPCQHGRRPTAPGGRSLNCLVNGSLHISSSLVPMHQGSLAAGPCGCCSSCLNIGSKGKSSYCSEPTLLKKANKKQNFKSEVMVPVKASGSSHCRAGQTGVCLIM
Sequence of 5'-AMP-activated protein kinase catalytic subunit alpha-1 (Q13131 whole entry, looked up): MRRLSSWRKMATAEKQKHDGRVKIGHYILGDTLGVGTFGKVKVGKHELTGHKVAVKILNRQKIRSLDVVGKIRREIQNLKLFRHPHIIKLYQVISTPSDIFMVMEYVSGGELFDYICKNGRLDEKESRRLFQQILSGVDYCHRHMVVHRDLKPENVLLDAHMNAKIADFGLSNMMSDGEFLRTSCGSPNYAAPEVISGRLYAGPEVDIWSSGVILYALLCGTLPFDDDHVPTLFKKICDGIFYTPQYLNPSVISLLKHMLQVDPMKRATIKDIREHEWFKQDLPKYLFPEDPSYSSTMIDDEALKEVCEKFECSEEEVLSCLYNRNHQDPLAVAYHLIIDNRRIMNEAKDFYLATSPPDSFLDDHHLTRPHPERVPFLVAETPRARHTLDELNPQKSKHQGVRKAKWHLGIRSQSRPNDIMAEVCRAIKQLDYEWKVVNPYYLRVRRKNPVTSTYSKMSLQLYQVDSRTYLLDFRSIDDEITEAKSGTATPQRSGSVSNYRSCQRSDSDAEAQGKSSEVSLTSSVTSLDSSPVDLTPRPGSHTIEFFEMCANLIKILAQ
Sequence of Mitogen-activated protein kinase kinase kinase 14 (Homo sapiens) (Q99558 whole entry, looked up): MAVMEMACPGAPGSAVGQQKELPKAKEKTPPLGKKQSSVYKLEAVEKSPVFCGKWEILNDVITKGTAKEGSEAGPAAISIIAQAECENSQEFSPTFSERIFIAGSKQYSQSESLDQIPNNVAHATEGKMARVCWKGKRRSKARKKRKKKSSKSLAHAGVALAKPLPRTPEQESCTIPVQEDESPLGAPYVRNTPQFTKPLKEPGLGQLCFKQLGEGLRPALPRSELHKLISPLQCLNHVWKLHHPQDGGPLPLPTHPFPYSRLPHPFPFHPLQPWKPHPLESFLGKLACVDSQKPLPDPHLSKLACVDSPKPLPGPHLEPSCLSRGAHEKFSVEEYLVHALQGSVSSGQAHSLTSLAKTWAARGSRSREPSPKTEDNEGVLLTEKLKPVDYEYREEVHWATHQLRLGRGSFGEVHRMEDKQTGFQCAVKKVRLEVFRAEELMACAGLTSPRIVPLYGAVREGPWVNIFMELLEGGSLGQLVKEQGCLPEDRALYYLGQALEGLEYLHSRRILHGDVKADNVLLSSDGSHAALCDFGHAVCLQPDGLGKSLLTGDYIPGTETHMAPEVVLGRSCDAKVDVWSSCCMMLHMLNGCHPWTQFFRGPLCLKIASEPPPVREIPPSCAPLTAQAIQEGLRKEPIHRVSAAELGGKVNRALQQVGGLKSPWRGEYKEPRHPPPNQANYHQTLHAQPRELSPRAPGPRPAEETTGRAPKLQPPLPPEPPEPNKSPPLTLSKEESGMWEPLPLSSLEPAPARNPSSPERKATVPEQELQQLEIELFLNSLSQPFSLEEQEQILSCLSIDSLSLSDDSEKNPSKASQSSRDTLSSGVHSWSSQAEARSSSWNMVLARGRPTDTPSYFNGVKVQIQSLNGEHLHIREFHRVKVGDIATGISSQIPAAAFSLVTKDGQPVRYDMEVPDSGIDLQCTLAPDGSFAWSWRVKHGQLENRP

Compound: CN(C)C/C=C/C(=O)Nc1ccc(C(=O)N2CCCC(Nc3ncc(Cl)c(-c4c[nH]c5ccccc45)n3)C2)cc1 (stereo not given)
% of control [1]: 83%

Compound: O[C@H]1CC[C@H](Nc2ncc3nc(Nc4c(F)cc(F)cc4F)n([C@H]4CCOC4)c3n2)CC1
% of control [2]: 100%

Compound: N#Cc1cccc(-c2c[nH]c3ncnc(N4CCOCC4)c23)c1
% of inhibition [3]: 33% | % of control [4]: 75%

Compound: C=CC(=O)Nc1ccc(C(=O)Nc2[nH]nc3c2CN(C(=O)N[C@H](CN(C)C)c2ccccc2)C3(C)C)cc1
% of engagement [5]: -0.6%

Compound: Cc1cc([C@@H](C)Nc2ccccc2C(=O)O)c2nc(N3CCOCC3)cc(=O)n2c1 [AZD-6482]
% of control [6]: 100%

% of inhibition ([7]; at 0.01 µM): 6.4% | % of inhibition ([7]; at 0.04 µM): -8.7% | % of inhibition ([7]; at 0.2 µM): -2% | % of inhibition ([7]; at 1 µM): -0.8% | % of inhibition ([7]; at 5 µM): -1.4% | % of inhibition [8]: 1.34%
Compound: CC[C@@H]1[C@H](F)C(=O)N[C@@H]1COc1nccc2cc(C(N)=O)c(OC)cc12 [ZIMLOVISERTIB]

Compound: COc1cc(Nc2nc(C)cc(-c3cnn4nc(OC)ccc34)n2)cc(C(F)(F)F)c1
% of control [9]: 94%

Compound: Cc1cc(F)c(C(=O)Nc2cccc(-c3nncn3C(C)C)n2)cc1-n1cnc(C2CC2)c1
% of control [10]: 36% | % of control [11]: 95%
